Numbered stars: 1 amine (or outer) side, 2 acyl side, 3 side chain; on linkers, the order of the positions; unused ones are H or OH. Bridge positions count the residues as written; N and C are the ends. Square brackets hold non-standard residues; d marks the D form. Peptide text beside a SMILES is read from it. I, II: the chains in the order shown. * marks the point of attachment. NOTA = O=C(O)CN1CCN(CC(=O)O)CCN(CC(=O)*)CC1; X1 = O=C(CCC(=O)[*:2])NCCOCCOCC(=O)[*:1]; 2Thi = N[C@@H](Cc1cccs1)C(=O)O; Nle = CCCC[C@H](N)C(=O)O; AEEA = NCCOCCOCC(=O)O; βAla = NCCC(=O)O
Columns and labels:
GRPR [1] = target: T1, GRPR (Mus musculus, UniProt P21729); experiment: Biodistribution in Balb/c mice (in vivo GRPR-targeting efficacy); conditions: mouse, pancreas, intravenous, total radioactivity; 64Cu-labeled peptide, female Balb/c mice, 30 min p.i.
T1 construct: using the pancreas, a GRPR-rich tissue, as a target for specific receptor-mediated accumulation; from tissue; host or cells: Female Balb/c mice, in vivo; organs (pancreas and others) collected 30 min p.i
Method: To determine the in vivo GRPR-targeting efficacy of labeled peptides, biodistribution of female Balb/c mice were realized with a minimum of 4 mice for each condition. Briefly, mice were injected with 370 to 740 kBq (10 to 20 μCi; 100 μL) of either ^64Cu/NOTA-monomer, ^64Cu/NOTA-dimer 1 or ^64Cu/NOTA-dimer 2 via the caudal vein. The animals were sacrificed with CO2 at 30 min post-injection [p.i.]. Organs of interest were then collected, weighed and measured in a gamma counter. The results were expressed as percentage of the injected dose per gram of tissue [%ID/g].

GRPR [2] = target: T2, GRPR (Homo sapiens, UniProt P30550); experiment: Competitive binding in human breast cancer T47D cells; conditions: tested in triplicate
Text: Table 1 Analytical data for NOTA-BBN(6-14) monomer and dimmers | column: Peptide

GRPR [3] = target: T2, GRPR; experiment: Competitive binding assay with [125I-Tyr4]bombesin on PC3 cells; design: host or cells: PC3 cells (whole, adherent cells in 24-well plates); conditions: read-out: Ki (affinity for GRPR)
Method: Competition assays were performed in 24-well plates using PC3 cells. The cells were cultured until near confluence, and the medium was replaced by 400 μL of reaction medium (RPMI complemented with 2 mg/mL BSA, 4.8 mg/mL HEPES, 1 U/mL penicillin G and 1 μg/mL streptomycin). For the assay, equal volumes of radioactive and non-radioactive ligands were added. […] The plates were incubated for 40 min at 37°C with agitation. After the incubation, the reaction medium was removed, and the cells were washed three times with PBS at room temperature. The cells were harvested and counted in a gamma counter (Cobra II auto-gamma counter, Packard, MN, USA). Experiments were realized three times in triplicate. Data were analyzed with GraphPad Prism 5 Software (GraphPad Software, San Diego, CA, USA) to determine the IC50. Finally, the Ki was determined using Cheng and Pursoff's formula [32].

PC3 tumor = experiment: in vivo; design: species or system Balb/c nude mice; conditions: mouse
Method: (§1) Tumor-bearing Balb/c nude mice were injected with 370 to 740 kBq (10 to 20 μCi; 100 μL) of ^64Cu/NOTA-monomer and ^64Cu/NOTA-dimer 2 via the caudal vein and sacrificed with CO2 at different periods of time after injection. Organs of interest were then collected and weighed. -Radioactivity was measured in a gamma counter. The blocking experiments were realized by co-injecting 0.1 μmol of non-radiolabeled peptide. The results were expressed as %ID/g with a minimum of 3 mice for each condition.

in vivo = experiment: in vivo; design: species or system Balb/c nude mice; conditions: Balb/c nude, mouse, total radioactivity; for tissue to tissue ratio at 0.5 h / tissue to tissue ratio at 2 h: iv
Method: as §1

[4] = assay type: in vitro ADME; conditions: 24 h
Method: Plasma and in vivo stability studies were realized as previously described by our group. Briefly, after peptide reconstitution, studies were carried out by incubating the tracers in mouse plasma for a period of 24 h and by injecting around 15 to 25 MBq (400 to 650 μCi; 100 μL) of ^64Cu/peptide to female Balb/c mice; 3 mice per peptide. After 24 h, a portion of the incubation mixtures in plasma or blood samples taken from the back paw were quenched with equal amounts of MeCN, chilled (4°C) and centrifuged, and the supernatant was assayed by HPLC. The stability was also determined by radio-TLC directly from plasma and blood samples without further handling; free ^64Cu and purified radiolabeled peptides were used as standards. The radio-TLCs were eluted on C-18-coated plastic sheets with 0.1 M sodium citrate buffer at pH 5.5 using an instant imager system for the radio-detection.

T2 sequence (P30550 whole entry): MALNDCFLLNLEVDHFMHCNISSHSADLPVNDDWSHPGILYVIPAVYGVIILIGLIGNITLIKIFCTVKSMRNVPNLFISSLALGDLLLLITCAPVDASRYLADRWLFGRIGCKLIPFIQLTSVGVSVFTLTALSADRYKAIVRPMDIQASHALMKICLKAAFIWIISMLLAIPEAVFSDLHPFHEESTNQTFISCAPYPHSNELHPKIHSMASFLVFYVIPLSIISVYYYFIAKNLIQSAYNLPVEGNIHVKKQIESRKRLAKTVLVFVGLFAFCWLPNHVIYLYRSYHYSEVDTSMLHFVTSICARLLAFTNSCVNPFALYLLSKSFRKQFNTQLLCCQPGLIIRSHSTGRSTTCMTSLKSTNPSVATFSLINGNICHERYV
T1 sequence (P21729 whole entry): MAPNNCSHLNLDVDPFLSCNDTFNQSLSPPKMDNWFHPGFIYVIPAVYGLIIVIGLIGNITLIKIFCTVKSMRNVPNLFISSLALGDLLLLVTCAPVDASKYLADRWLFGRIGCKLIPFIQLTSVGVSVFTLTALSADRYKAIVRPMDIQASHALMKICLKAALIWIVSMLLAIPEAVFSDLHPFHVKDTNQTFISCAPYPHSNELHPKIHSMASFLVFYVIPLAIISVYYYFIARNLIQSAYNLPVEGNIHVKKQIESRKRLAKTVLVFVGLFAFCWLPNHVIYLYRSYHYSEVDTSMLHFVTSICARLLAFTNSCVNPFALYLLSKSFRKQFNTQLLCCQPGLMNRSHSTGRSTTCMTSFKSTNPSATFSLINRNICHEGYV

## CCCC[C@H](NC(=O)[C@H](Cc1cccs1)NC(=O)[C@H](Cc1c[nH]cn1)NC(=O)CCNC(=O)[C@@H](NC(=O)[C@H](C)NC(=O)[C@H](Cc1c[nH]c2ccccc12)NC(=O)[C@H](CCC(N)=O)NC(=O)[C@@H](Cc1ccc(O)cc1)NC(=O)COCCOCCNC(=O)CN1CCN(CC(=O)O)CCN(CC(=O)O)CC1)C(C)C)C(N)=O [NOTA-monomer, NOTA-PEG-BBN(6-14)] ({NOTA-AEEA}-[dY]QWAV[βAla]H[2Thi][Nle]-NH2)
GRPR [1]
  tissue uptake at 0.5 h: 18.4 ± 2.9 %ID/g
GRPR [2]
  Ki: 1.3 nM
GRPR [3]
  Ki: 2.51 ± 1.54 nM

## CCCC[C@H](NC(=O)[C@H](Cc1cccs1)NC(=O)[C@H](Cc1c[nH]cn1)NC(=O)CCNC(=O)[C@@H](NC(=O)[C@H](C)NC(=O)[C@H](Cc1c[nH]c2ccccc12)NC(=O)[C@H](CCC(N)=O)NC(=O)[C@@H](Cc1ccc(O)cc1)NC(=O)CCC(=O)NCCOCCOCC(=O)N[C@@H](CCCCNC(=O)CN1CCN(CC(=O)O)CCN(CC(=O)O)CC1)C(=O)NCCOCCOCC(=O)NCC(=O)N[C@H](Cc1ccc(O)cc1)C(=O)N[C@@H](CCC(N)=O)C(=O)N[C@@H](Cc1c[nH]c2ccccc12)C(=O)N[C@@H](C)C(=O)N[C@H](C(=O)NCCC(=O)N[C@@H](Cc1c[nH]cn1)C(=O)N[C@@H](Cc1cccs1)C(=O)N[C@@H](CCCC)C(N)=O)C(C)C)C(C)C)C(N)=O [^64Cu/NOTA-dimer 2, metal not drawn] (I: K(NOTA)[AEEA]G[dY]QWAV[βAla]H[2Thi][Nle]-NH2 / II: [dY]QWAV[βAla]H[2Thi][Nle]-NH2; linker I:N-II:N via X1)
PC3 tumor; Balb/c nude, 2 h
  Biodistribution Adrenal: 11.56 ± 4.91 %ID/g
  Biodistribution Blood: 1.34 ± 0.15 %ID/g
  Biodistribution Fat: 0.68 ± 0.61 %ID/g
  Biodistribution Lungs: 5.07 ± 1.58 %ID/g
  Biodistribution Pancreas: 13.35 ± 7.38 %ID/g
  Biodistribution Plasma: 2.45 ± 0.27 %ID/g
PC3 tumor; Balb/c nude, iv, 2 h
  Tumor/pancreas ratio: 0.36 ± 0.09
In vivo; Tumor/blood ratio
  tissue to tissue ratio at 0.5 h: 1.39 ± 0.3
  tissue to tissue ratio at 2 h: 4.09 ± 1.79
In vivo; Tumor/kidney ratio
  tissue to tissue ratio at 0.5 h: 0.28 ± 0.09
  tissue to tissue ratio at 2 h: 0.22 ± 0.11
In vivo; Tumor/liver ratio
  tissue to tissue ratio at 0.5 h: 0.1 ± 0.01
  tissue to tissue ratio at 2 h: 0.22 ± 0.07
In vivo; Tumor/muscle ratio
  tissue to tissue ratio at 0.5 h: 3.95 ± 1.98
  tissue to tissue ratio at 2 h: 4.46 ± 1.86
In vivo; Tumor/pancreas ratio
  tissue to tissue ratio at 0.5 h: 0.89 ± 0.11
In vivo; Biodistribution Adrenal
  tissue uptake at 0.5 h: 9.23 ± 5.01 %ID/g
In vivo; Biodistribution Blood
  tissue uptake at 0.5 h: 3.13 ± 0.67 %ID/g
In vivo; Biodistribution Bone
  tissue uptake at 0.5 h: 0.78 ± 0.21 %ID/g
  tissue uptake at 2 h: 0.83 ± 0.19 %ID/g
In vivo; Biodistribution Brain
  tissue uptake at 0.5 h: 0.38 ± 0.06 %ID/g
  tissue uptake at 2 h: 0.22 ± 0.05 %ID/g
In vivo; Biodistribution Fat
  tissue uptake at 0.5 h: 1.86 ± 0.81 %ID/g
In vivo; Biodistribution Heart
  tissue uptake at 0.5 h: 4.42 ± 1.59 %ID/g
  tissue uptake at 2 h: 2.68 ± 0.13 %ID/g
In vivo; Biodistribution Kidney
  tissue uptake at 0.5 h: 17 ± 6.24 %ID/g
  tissue uptake at 2 h: 26.4 ± 8.13 %ID/g
In vivo; Biodistribution Liver
  tissue uptake at 0.5 h: 41.8 ± 5.58 %ID/g
  tissue uptake at 2 h: 23.1 ± 2.36 %ID/g
In vivo; Biodistribution Lungs
  tissue uptake at 0.5 h: 7.22 ± 2.73 %ID/g
In vivo; Biodistribution Muscle
  tissue uptake at 0.5 h: 1.59 ± 1.16 %ID/g
  tissue uptake at 2 h: 1.13 ± 0.62 %ID/g
In vivo; Biodistribution Pancreas
  tissue uptake at 0.5 h: 4.6 ± 0.57 %ID/g
In vivo; Biodistribution Plasma
  tissue uptake at 0.5 h: 5.27 ± 1.27 %ID/g
In vivo; Biodistribution Spleen
  tissue uptake at 0.5 h: 5.31 ± 1.43 %ID/g
  tissue uptake at 2 h: 5.5 ± 2.61 %ID/g
In vivo; Biodistribution Tumor
  tissue uptake at 0.5 h: 3.95 ± 0.26 %ID/g
  tissue uptake at 2 h: 6.28 ± 2.87 %ID/g
[4]
  Stability in mouse plasma: stable

## CCCC[C@H](NC(=O)[C@H](Cc1cccs1)NC(=O)[C@H](Cc1c[nH]cn1)NC(=O)CCNC(=O)[C@@H](NC(=O)[C@H](C)NC(=O)[C@H](Cc1c[nH]c2ccccc12)NC(=O)[C@H](CCC(N)=O)NC(=O)[C@@H](Cc1ccc(O)cc1)NC(=O)COCCOCCNC(=O)CN1CCN(CC(=O)O)CCN(CC(=O)O)CC1)C(C)C)C(N)=O [^64Cu/NOTA-monomer, metal not drawn] ({NOTA-AEEA}-[dY]QWAV[βAla]H[2Thi][Nle]-NH2)
PC3 tumor; Balb/c nude, 0.5 h
  Biodistribution Adrenal: 4.29 ± 1.13 %ID/g
  Biodistribution Blood: 1.35 ± 0.47 %ID/g
  Biodistribution Bone: 0.43 ± 0.46 %ID/g
  Biodistribution Brain: 0.08 ± 0.07 %ID/g
  Biodistribution Fat: 0.65 ± 0.54 %ID/g
  Biodistribution Heart: 1.05 ± 0.91 %ID/g
  Biodistribution Kidney: 10.42 ± 1.29 %ID/g
  Biodistribution Lungs: 1.77 ± 1.28 %ID/g
  Biodistribution Muscle: 0.40 ± 0.33 %ID/g
  Biodistribution Plasma: 2.48 ± 0.63 %ID/g
  Biodistribution Spleen: 1.63 ± 1.82 %ID/g
  Biodistribution Tumor: 1.79 ± 0.46 %ID/g
PC3 tumor; Balb/c nude, iv, 0.5 h
  Tumor/kidney ratio: 0.17 ± 0.04
  Tumor/liver ratio: 2.07 ± 1.13
  Tumor/muscle ratio: 7.42 ± 3.17
  Tumor/pancreas ratio: 0.44 ± 0.17
PC3 tumor
  Tumor/muscle ratio: 7.42 ± 0.41
In vivo; Tumor/blood ratio
  tissue to tissue ratio at 0.5 h: 1.49 ± 0.41
In vivo; Biodistribution Liver
  tissue uptake at 0.5 h: 5.38 ± 8.12 %ID/g
In vivo; Biodistribution Pancreas
  tissue uptake at 0.5 h: 5.1 ± 2.5 %ID/g
[4]
  Stability in mouse plasma: stable
